From article PMC7037682, “Herb–Drug Interaction of Red Ginseng Extract and Ginsenoside Rc with Valsartan in Rats” (Molecules, 2020)

What was measured:
[1] = target: T1, OATP1B1 (Homo sapiens, UniProt Q9Y6L6); assay: Inhibition of OATP1B1-mediated [3H]estrone-3-sulfate uptake in HEK293-OATP1B1 cells
T1 sequence (Q9Y6L6 1-691): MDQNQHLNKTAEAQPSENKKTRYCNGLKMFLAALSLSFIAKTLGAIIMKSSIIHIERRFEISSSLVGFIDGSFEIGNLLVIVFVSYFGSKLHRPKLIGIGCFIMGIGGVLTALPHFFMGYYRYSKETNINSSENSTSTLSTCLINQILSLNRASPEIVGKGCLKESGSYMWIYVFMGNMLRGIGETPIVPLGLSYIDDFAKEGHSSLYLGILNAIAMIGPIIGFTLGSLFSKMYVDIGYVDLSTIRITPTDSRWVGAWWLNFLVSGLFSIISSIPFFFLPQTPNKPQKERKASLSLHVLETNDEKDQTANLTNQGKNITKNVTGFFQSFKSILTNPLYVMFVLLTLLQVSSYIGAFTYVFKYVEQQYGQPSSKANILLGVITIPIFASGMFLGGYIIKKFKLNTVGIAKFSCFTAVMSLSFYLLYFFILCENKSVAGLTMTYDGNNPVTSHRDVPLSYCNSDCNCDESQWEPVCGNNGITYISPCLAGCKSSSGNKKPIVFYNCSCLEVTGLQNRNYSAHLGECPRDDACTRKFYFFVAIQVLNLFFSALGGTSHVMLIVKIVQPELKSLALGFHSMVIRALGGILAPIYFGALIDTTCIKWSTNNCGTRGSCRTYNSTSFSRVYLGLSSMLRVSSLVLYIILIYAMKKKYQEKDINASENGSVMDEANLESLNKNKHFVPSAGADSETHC
Procedure: HEK293 cells overexpressing the OCT1, OCT2, OAT1, OAT3, OATP1B1, and OATP1B3 transporters (HEK293-OCT1, -OCT2, -OAT1, -OAT3, -OATP1B1, and -OATP1B3, respectively) and HEK293-mock cells (Corning Life Sciences; Woburn, MA, USA) were used and characterized as previously described.
HEK293 cells overexpressing drug transporters and HEK293-mock cells were seeded in poly-D-lysine-coated 96-well plates at a density of 10^5 cells/well and were cultured in DMEM supplemented with 10% FBS, 5 mM non-essential amino acids, and 2 mM sodium butyrate in a humidified atmosphere with 8% CO2 at 37 °C.
To examine the effects of ginsenosides and typical inhibitors on transporter activity, aliquots (100 μL) of HBSS containing the probe substrate and ginsenosides or typical inhibitors were added to the cells after aspirating pre-incubated HBSS. The concentrations and probe substrates were as follows: 0.1 μM [^3H]MPP^+ for OCT1 and OCT2, 0.1 μM [^3H]PAH for OAT1, 0.1 μM [^3H]ES for OAT3 and OATP1B1, and 0.1 μM [^3H]EG for OATP1B3. […] Then the uptake of probe substrates into HEK293-mock cells and HEK293-OCT1, -OCT2, -OAT1, -OAT3, -OATP1B1, and -OATP1B3 cells in the presence and absence of typical inhibitor or each ginsenoside with previously described concentration range was measured for 5 min. Immediately after placing the plates on ice, the cells were washed three times with 100 μL of ice-cold HBSS, followed by lysing with 50 μL of 10% SDS solution and mixing with 150 μL of Optiphase cocktail solution (Perkin Elmer Inc., Boston, MA, USA). The radioactivity of the probe substrates in the cells was determined using a liquid scintillation counter.
In the inhibition studies, the uptake rate of substrate by HEK293 cells overexpressing the respective transporters was used as the control (100%) and the uptake rate of substrates in the presence of typical inhibitors or ginsenosides expressed as a percentage of the control. The inhibition data were fitted to an inhibitory effect model using Sigma plot (version 10.0; Systat Software Inc., San Jose, CA, USA). IC50 value indicated the half-maximal inhibitory concentration of the inhibitor.

[2] = test system: UGT1A9; details: cited from earlier work; for IC50: read-out: IC50 UGT1A9
[3] = Protein binding in rat plasma by rapid equilibrium dialysis; assay type: in vitro ADME; details: rapid equilibrium dialysis 4 h 37 °C
Procedure: (§1) The protein binding of Rb1, Rb2, and Rc (1 μM) in rat plasma and liver homogenate was determined using a rapid equilibrium dialysis kit (ThermoFisher Scientific Korea, Seoul, Korea) according to the manufacturer’s instructions. Briefly, 100 μL of rat plasma and 10% liver homogenate samples containing Rb1, Rb2, or Rc (1 μM) were added to the sample chamber of a semipermeable membrane (molecular weight cut-off 8000 Da) and 300 μL of HBSS was added to the outer buffer chamber. Four hours after incubation at 37 °C on a shaking incubator at 300 rpm, aliquots (50 μL) were collected from both the sample and buffer chambers and treated with equal volumes of fresh HBSS and plasma, respectively, to match the sample matrices. The matrix-matched samples (100 μL) were mixed with 300 μL of 80% ice-cold methanol containing berberine 0.05 ng/mL and 0.1% formic acid for 15 min.
Plasma protein binding was calculated using the following equation [47]. (1) Undiluted free drug fraction fu= Drug concentration in buffer chamber/Drug concentration in plasma chamber

[4] = target: T1, OATP1B1; assay: Inhibition of OATP1B1-mediated valsartan uptake in HEK293-OATP1B1 cells; assay type: cell-based; design: host or cells: HEK293; details: 5 μM valsartan, 5 min
Procedure: Transporter mediated uptake of probe substrates or valsartan was calculated by subtracting the uptake rate of probe substrates or valsartan into HEK293-mock cells from that into HEK293 cells expressing respective transporters.

[5] = Protein binding in rat liver homogenate by rapid equilibrium dialysis; assay type: in vitro ADME; details: 10% liver homogenate, rat liver homogenate (10%)
Procedure: as §1
Tissue protein binding was calculated using the following equations, and a dilution factor (D as a value of 10) was used since we used 10% liver homognenates. (2) Diluted free drug fraction fu^′= Drug concentration in buffer chamber/Drug concentration in liver homogenate chamber (3) Undiluted free drug fraction fu= 1/D/1/fu^′−1+1/D= 0.1/1/fu^′−1+0.1

[6] = repeated red ginseng extract 3 g/day ref 14, 41; cited from earlier work
[7] = HEK293-OATP1B1, 0.1 μM [3H]ES uptake, 5 min
[8] = read-out: IC50 OATP1B1, HEK293-OATP1B1, 0.1 μM [3H]ES uptake, 5 min

IC50 [1] [µM]	SMILES	IC50 OATP1B1 [1, 7]	IC50 [1, 8] [µM]	further results
15.9	CC(C)=CCC[C@](C)(O[C@@H]1O[C@H](CO)[C@@H](O)[C@H](O)[C@H]1O)[C@H]1CC[C@]2(C)[C@@H]1[C@H](O)C[C@@H]1[C@@]3(C)CC[C@H](O[C@@H]4O[C@H](CO)[C@@H](O)[C@H](O)[C@H]4O[C@@H]4O[C@H](CO)[C@@H](O)[C@H](O)[C@H]4O)C(C)(C)[C@@H]3CC[C@]12C [Rd, ginsenoside Rd]	–	–	–
> 100	CC(C)=CCC[C@](C)(O[C@@H]1O[C@H](CO)[C@@H](O)[C@H](O)[C@H]1O)[C@H]1CC[C@]2(C)[C@@H]1[C@H](O)C[C@@H]1[C@@]3(C)CC[C@H](O)C(C)(C)[C@@H]3[C@@H](O[C@@H]3O[C@H](CO)[C@@H](O)[C@H](O)[C@H]3O)C[C@]12C [Rg1, ginsenoside Rg1]	did not inhibit	–	IC50 UGT1A9 [2]: did not inhibit
> 100	CC(C)=CCC[C@](C)(O[C@@H]1O[C@H](CO)[C@@H](O)[C@H](O)[C@H]1O)[C@H]1CC[C@]2(C)[C@@H]1[C@H](O)C[C@@H]1[C@@]3(C)CC[C@H](O)C(C)(C)[C@@H]3[C@@H](O[C@@H]3O[C@H](CO)[C@@H](O)[C@H](O)[C@H]3O[C@@H]3O[C@@H](C)[C@H](O)[C@@H](O)[C@H]3O)C[C@]12C [Re, ginsenoside Re]	did not inhibit	–	IC50 UGT1A9 [2]: did not inhibit
18.3	CC(C)=CCC[C@](C)(O[C@@H]1O[C@H](CO[C@@H]2O[C@@H](CO)[C@H](O)[C@H]2O)[C@@H](O)[C@H](O)[C@H]1O)[C@H]1CC[C@]2(C)[C@@H]1[C@H](O)C[C@@H]1[C@@]3(C)CC[C@H](O[C@@H]4O[C@H](CO)[C@@H](O)[C@H](O)[C@H]4O[C@@H]4O[C@H](CO)[C@@H](O)[C@H](O)[C@H]4O)C(C)(C)[C@@H]3CC[C@]12C [Rc, ginsenoside Rc]	–	–	fraction unbound at 4 h, 1 μM [3]: 0.001 ± 7.01e-08; IC50 [4]: 13.6 µM; fraction unbound at 4 h, 1 μM [5]: 0.005; maximum concentration in human blood [6]: 6.2 to 12.7 nM

More lines, now with the values behind:

SMILES	IC50 [1] [µM]	IC50 OATP1B1 [1, 7]	IC50 [1, 8] [µM]	further results
CC(C)=CCC[C@](C)(O)[C@H]1CC[C@]2(C)[C@@H]1[C@H](O)C[C@@H]1[C@@]3(C)CC[C@H](O[C@@H]4O[C@H](CO)[C@@H](O)[C@H](O)[C@H]4O)C(C)(C)[C@@H]3CC[C@]12C [Rh2, ginsenoside Rh2]	22.3	–	–	–
CC(C)=CCC[C@](C)(O[C@@H]1O[C@H](CO)[C@@H](O)[C@H](O)[C@H]1O)[C@H]1CC[C@]2(C)[C@@H]1[C@H](O)C[C@@H]1[C@@]3(C)CC[C@H](O)C(C)(C)[C@@H]3CC[C@]12C [Compound K, compound K]	–	–	22.5	–
CC(C)=CCC[C@](C)(O)[C@H]1CC[C@]2(C)[C@@H]1[C@H](O)C[C@@H]1[C@@]3(C)CC[C@H](O)C(C)(C)[C@@H]3[C@@H](O[C@@H]3O[C@H](CO)[C@@H](O)[C@H](O)[C@H]3O)C[C@]12C [Rh1, ginsenoside Rh1]	> 100	did not inhibit	–	–
CC(C)=CCC[C@](C)(O[C@@H]1O[C@H](CO[C@@H]2O[C@H](CO)[C@@H](O)[C@H](O)[C@H]2O)[C@@H](O)[C@H](O)[C@H]1O)[C@H]1CC[C@]2(C)[C@@H]1[C@H](O)C[C@@H]1[C@@]3(C)CC[C@H](O[C@@H]4O[C@H](CO)[C@@H](O)[C@H](O)[C@H]4O[C@@H]4O[C@H](CO)[C@@H](O)[C@H](O)[C@H]4O)C(C)(C)[C@@H]3CC[C@]12C [Rb1, ginsenoside Rb1]	68.2	–	–	fraction unbound at 4 h, 1 μM [3]: 0.002; IC50 [2]: 21.3 µM; IC50 [4]: 24.1 µM; fraction unbound at 4 h, 1 μM [5]: 0.004; maximum concentration in human blood [6]: 6.2 to 12.7 nM
CC(C)=CCC[C@](C)(O)[C@H]1CC[C@]2(C)[C@@H]1[C@H](O)C[C@@H]1[C@@]3(C)CC[C@H](O)C(C)(C)[C@@H]3[C@@H](O)C[C@]12C [PPT, protopanaxatriol]	–	did not inhibit	> 100	–
CC(C)=CCCC(C)(O)[C@H]1CC[C@]2(C)[C@@H]1[C@H](O)C[C@@H]1[C@@]3(C)CC[C@H](O)C(C)(C)[C@@H]3CC[C@]12C (stereo in doubt) [PPD, protopanaxadiol]	–	–	> 100	–
CC(C)=CCC[C@](C)(O)[C@H]1CC[C@]2(C)[C@@H]1[C@H](O)C[C@@H]1[C@@]3(C)CC[C@H](O[C@@H]4O[C@H](CO)[C@@H](O)[C@H](O)[C@H]4O[C@@H]4O[C@H](CO)[C@@H](O)[C@H](O)[C@H]4O)C(C)(C)[C@@H]3CC[C@]12C [Rg3, ginsenoside Rg3]	–	–	7.99	IC50 [2]: 15.1 µM
CC(C)=CCC[C@](C)(O[C@@H]1O[C@H](CO[C@@H]2OC[C@H](O)[C@H](O)[C@H]2O)[C@@H](O)[C@H](O)[C@H]1O)[C@H]1CC[C@]2(C)[C@@H]1[C@H](O)C[C@@H]1[C@@]3(C)CC[C@H](O[C@@H]4O[C@H](CO)[C@@H](O)[C@H](O)[C@H]4O[C@@H]4O[C@H](CO)[C@@H](O)[C@H](O)[C@H]4O)C(C)(C)[C@@H]3CC[C@]12C [Rb2, ginsenoside Rb2]	47.6	–	–	fraction unbound at 4 h, 1 μM [3]: 0.001 ± 4e-08; IC50 [4]: 8.8 µM; fraction unbound at 4 h, 1 μM [5]: 0.004; maximum concentration in human blood [6]: 6.2 to 12.7 nM
